# Entries after “also recorded” stand apart in the source; their conditions may differ.
# Tests used:
# Type in all cases: in vivo, human
# [1] = tested on: absence seizures in patients diagnosed with encephalocele; experiment: Open label, expanded-access program: absence seizure frequency; conditions: for Seizure frequency, Absence: baseline 6.8
# Procedure: (§1) Subjects were required to be on one or more AEDs at stable doses for a minimum of two weeks prior to baseline and to have stable vagus nerve stimulation (VNS) settings and ketogenic diet ratios for a minimum of four weeks prior to baseline.
# (§2) A maximum dose of 50 mg/kg/day could be utilised for patients who were tolerating the medication but had not achieved seizure control; these patients had further weekly titration by 5 mg/kg/day.
# (§3) Modifications were made to concomitant AEDs as per clinical indication.
# (§4) Seizure frequency, intensity, and duration were recorded by caregivers in a diary during a baseline period of at least 28 days. Changes in seizure frequency relative to baseline were calculated after at least 2 weeks and at defined timepoints of treatment.
# (§5) Patients may be defined as responders if they had more than 50% reduction in seizure frequency compared to baseline. The percent change in seizure frequency was calculated as follows: […]
# (§6) The percent change of seizure frequency may be calculated for any time interval where seizure number has been recorded. For the purpose of this example the percent change of seizure frequency for the end of the treatment period was calculated as follows: […]
# [2] = tested on: focal seizures with secondary generalisation in patients diagnosed with encephalocele; experiment: Open label, expanded-access program: frequency of focal seizures with secondary generalisation; conditions: Patient 2, baseline 85.0
# Procedure: as §1, §2, §3, §4, §5, §6
# [3] = tested on: seizures associated with encephalocele; experiment: Open label, expanded-access program: seizures overall; conditions: two patients
# Procedure: as §1, §2, §3, §4, §5, §6
# [4] = tested on: focal seizures with impairment in patients diagnosed with encephalocele; experiment: Open label, expanded-access program: frequency of focal seizures with impairment; set-up: Seizure frequency, Focal with impairment: unit not given here
# Procedure: as §1, §3, §4, §5, §6
smiles,measurement,setting,value
"C=C(C)[C@@H]1CCC(C)=C[C@H]1c1c(O)cc(CCCCC)cc1O [CBD, cannabidiol]","Seizure frequency, Absence","[1]; Patient 1, 2 weeks, CBD 15.0 mg/kg/day",6.0
same,"Seizure frequency, Absence","[1]; Patient 1, 4 weeks, CBD 25.0 mg/kg/day",8.0
same,"Seizure frequency, Absence","[1]; Patient 1, 8 weeks, CBD 30.0 mg/kg/day",0
same,"Seizure frequency, Absence","[1]; Patient 1, 12 weeks, CBD 25.0 mg/kg/day",0
same,"Seizure frequency, Absence","[1]; Patient 1, 24 weeks, CBD 15.0 mg/kg/day",1.6
same,"Seizure frequency, Absence","[1]; Patient 1, 36 weeks, CBD 10.0 mg/kg/day",0
same,"Seizure frequency, Absence","[1]; Patient 1, 48 weeks, CBD 10.0 mg/kg/day",0
same,"Seizure frequency, Absence","[1]; Patient 1, 60 weeks, CBD 15.0 mg/kg/day",0
same,"Seizure frequency, Absence","[1]; Patient 1, 84 weeks, CBD 15.0 mg/kg/day",0
same,seizure freedom from absence seizures,"[1]; Patient 1, after 36 weeks of treatment",completely seizure free from absence seizures
same,reduction in absence seizures over the treatment period,"[1]; Patient 1, treated for 144 weeks, relative to baseline",100%
same,effect on frequency of absence seizures (in words),[1]; patients with encephalocele,effective in reducing the frequency; also recorded: significant reduction
same,"Seizure frequency, Focal with secondary generalisation","[2]; 2 weeks, CBD 10.0 mg/kg/day",90.0
same,"Seizure frequency, Focal with secondary generalisation","[2]; 4 weeks, CBD 20.0 mg/kg/day",28.8
same,"Seizure frequency, Focal with secondary generalisation","[2]; 8 weeks, CBD 25.0 mg/kg/day",90.2
same,"Seizure frequency, Focal with secondary generalisation","[2]; 12 weeks, CBD 25.0 mg/kg/day",197.9
same,"Seizure frequency, Focal with secondary generalisation","[2]; 16 weeks, CBD 25.0 mg/kg/day",212.8
same,"Seizure frequency, Focal with secondary generalisation","[2]; 24 weeks, CBD 25.0 mg/kg/day",145.6
same,"Seizure frequency, Focal with secondary generalisation","[2]; 48 weeks, CBD 46.0 mg/kg/day",143.1
same,"Seizure frequency, Focal with secondary generalisation","[2]; 60 weeks, CBD 24.0 mg/kg/day",141.0
same,"Seizure frequency, Focal with secondary generalisation","[2]; 72 weeks, CBD 25.0 mg/kg/day",148.6
same,"Seizure frequency, Focal with secondary generalisation","[2]; 84 weeks, CBD 25.0 mg/kg/day",143.1
same,"Seizure frequency, Focal with secondary generalisation","[2]; 96 weeks, CBD 25.0 mg/kg/day",117.8
same,"Seizure frequency, Focal with secondary generalisation","[2]; 108 weeks, CBD 20.0 mg/kg/day",119.1
same,"Seizure frequency, Focal with secondary generalisation","[2]; 120 weeks, CBD 20.0 mg/kg/day",146.6
same,"Seizure frequency, Focal with secondary generalisation","[2]; 144 weeks, CBD 22.0 mg/kg/day",91.1
same,effect on number of seizures associated with encephalocele (in words),[3],significantly reduce the number of seizures
same,reductions in seizures over period of treatment,"[3]; absence and focal seizures with impairment, relative to baseline",20-100%
same,"Seizure frequency, Focal with impairment","[4]; Patient 1, 4 weeks, CBD 25.0 mg/kg/day, baseline 92.5",104.0
same,"Seizure frequency, Focal with impairment","[4]; Patient 1, 8 weeks, CBD 30.0 mg/kg/day, baseline 92.5",92.8
same,"Seizure frequency, Focal with impairment","[4]; Patient 1, 12 weeks, CBD 25.0 mg/kg/day, baseline 92.5",98.0
same,"Seizure frequency, Focal with impairment","[4]; Patient 1, 24 weeks, CBD 15.0 mg/kg/day, baseline 92.5",93.1
same,"Seizure frequency, Focal with impairment","[4]; Patient 1, 60 weeks, CBD 15.0 mg/kg/day, baseline 92.5",95.0
same,"Seizure frequency, Focal with impairment","[4]; Patient 2, 2 weeks, CBD 10.0 mg/kg/day, baseline 6.0",10.0
same,"Seizure frequency, Focal with impairment","[4]; Patient 2, 4 weeks, CBD 20.0 mg/kg/day, baseline 6.0",6.8
same,"Seizure frequency, Focal with impairment","[4]; Patient 2, 8 weeks, CBD 25.0 mg/kg/day, baseline 6.0",13.5
same,"Seizure frequency, Focal with impairment","[4]; Patient 2, 12 weeks, CBD 25.0 mg/kg/day, baseline 6.0",25.1
same,"Seizure frequency, Focal with impairment","[4]; Patient 2, 16 weeks, CBD 25.0 mg/kg/day, baseline 6.0",14.6
same,"Seizure frequency, Focal with impairment","[4]; Patient 2, 24 weeks, CBD 25.0 mg/kg/day, baseline 6.0",12.9
same,"Seizure frequency, Focal with impairment","[4]; Patient 2, 48 weeks, CBD 46.0 mg/kg/day, baseline 6.0",14.5
same,"Seizure frequency, Focal with impairment","[4]; Patient 2, 60 weeks, CBD 24.0 mg/kg/day, baseline 6.0",18.1
same,"Seizure frequency, Focal with impairment","[4]; Patient 2, 72 weeks, CBD 25.0 mg/kg/day, baseline 6.0",13.4
same,"Seizure frequency, Focal with impairment","[4]; Patient 2, 84 weeks, CBD 25.0 mg/kg/day, baseline 6.0",9.8
same,"Seizure frequency, Focal with impairment","[4]; Patient 2, 96 weeks, CBD 25.0 mg/kg/day, baseline 6.0",22.9
same,"Seizure frequency, Focal with impairment","[4]; Patient 2, 108 weeks, CBD 20.0 mg/kg/day, baseline 6.0",9.4
same,"Seizure frequency, Focal with impairment","[4]; Patient 2, 120 weeks, CBD 20.0 mg/kg/day, baseline 6.0",11.3
same,"Seizure frequency, Focal with impairment","[4]; Patient 2, 144 weeks, CBD 22.0 mg/kg/day, baseline 6.0",4.8
same,reduction in focal seizures with impairment over the treatment period,"[4]; Patient 2, treated for 144 weeks, relative to baseline",20%
same,effect on frequency of focal seizures with impairment (in words),[4]; patients with encephalocele,effective in reducing the frequency; also recorded: significant reduction

# Source: patent US20230372367A1 (GW Research Limited, priority 2020, published 2023)
